The subject of this experiment is K/B×N serum induced arthritis in C57BL/6 mice. As to the kind of experiment: Sustained K/B×N serum induced arthritis, transfer of monocytes from arthritic mice incubated with MCTR3. In kind it is in vivo, mouse. The protocol: (C-D) K/B×N serum (100 μL, i.p.) was administered to C57BL/6 mice on day 0, 2 and 9 to induce and prolong inflammatory arthritis and, on day 12, mice were treated i.v. with 2×10^6 monocytes isolated from arthritic mice and incubated with either vehicle (PBS+0.1% EtOH) or 1 nM MCTR3 for 90 min at 37° C. Disease course was monitored daily by assessing C) clinical scores and D) oedema. Results are mean±SEM. and expressed as percent change from day of treatment. n=9 per group from two distinct experiments. (E) On day 22 hind paws were harvested joints were fixed, sectioned, stained using H&E stain and leukocyte infiltration evaluated. Top and centre panels present representative images from each experimental group; bottom panel Quantitation of the scores in each of the group. Results are mean±SEM. n=8 mice per group. Statistical differences were evaluated using Mann-Whitney U test. IFP=intrapatellar fat, M=meniscus, TB=Tibia, PF=Pannus formation, arrows denote leukocyte infiltration. (F-G) Paws were harvested 10 days after treatment and lipid mediator profiles were determined using LC-MS/MS-based lipid mediator profiling and evaluated using PLS-DA. (F) scores plot with highlighted regions denoting the clusters representing cells from each group (G) VIP scores for top 15 mediators. Each dot in the score plot represents a separate mouse.
FIG. 4: Regulation of joint reparative pathways in mice receiving MCTR3-trained monocytes. K/B×N serum (100 μL, i.p.) was administered to C57BL/6 mice on day 0, 2 and 9 to induce and prolong inflammatory arthritis and, on day 12, mice were treated i.v. with 2×10^6 monocytes isolated from arthritic mice and incubated with either vehicle (PBS+0.1% EtOH) or 1 nM MCTR3 for 90 min. (A-C) On day 22 hind paws were harvested, fixed, and stained to evaluate A) proteoglycan content using Safranin-O staining; B) Col 2 and C) Col X expression was evaluated using immunofluorescence. Left panels present representative images from each experimental group, right panels provide a quantitative evaluation of the staining. Results are expressed as percent change vs Monocyte group. n=7-8 mice per group. Statistical differences were evaluated using Wilcoxon signed rank test. (D-I) Hind paws were also collected on day 22 to evaluate the expression of the indicated genes was evaluated using quantitative realtime PCR. Results are from n=5 mice per group. Statistical differences were evaluated using Mann Whitney-U test.
FIG. 5: MCTR3 reprograms the arthritic monocyte-derive macrophage transcriptome. A-B) Arthritis was induced and prolonged in C57BL/6 mice by administering 100 μL K/B×N serum i.p. on day 0, 2 and 9. Mice were treated on day 12 i.v. with 2×10^6 monocytes isolated from arthritic mice and incubated either with vehicle (PBS+0.1% DMSO) or 10 μM RG108, a DNMT inhibitor, for 15 min and then with a vehicle (PBS+0.1% EtOH) or 1 nM MCTR3 for 90 min (37° C.). Disease course was monitored daily by assessing A) clinical scores and B) oedema. Results are mean±SEM and expressed as percent change from day of treatment. n=10 mice per group. Statistical differences were evaluated using Two-way ANOVA. (C-E) K/B×N serum (100 μL, i.p.) was administered to mice on days 0, 2 and 9 to induce and prolong inflammatory arthritis. On day 12, mice were treated i.v. with 2×10^6 monocytes isolated from arthritic mice that were previously incubated with either vehicle (PBS+0.1% EtOH) or 1 nM MCTR3 for 90 min. Cells were isolated from paw joints on day 22, sorted for CD45^+ cells and single cell RNA sequencing was performed. […] Results are from n=4 mice per group. (F-G) Monocytes were isolated from human healthy volunteers, these cells were then incubated with GM-CSF (7 days, 37° C.) then with either Vehicle or MCTR3 (1 nM, 37° C.). Cells were lysed and the phosphoproteome determined using mass spectrometry. […]

[1] abbreviates: 200 μg nor-NOHA i.p. daily for 10 days from day 12.
[2] abbreviates: 200 μg nor-NOHA i.p. daily, mice given MCTR3-reprogrammed monocytes.

In the case of `N=C(NO)NCC[C@H](N)C(=O)O` [nor-NOHA, N^ω-hydroxy-nor-L-arginine], under setting [1], the “clinical scores in mice given MCTR3-reprogrammed monocytes” value is “increase” and the “oedema in mice given MCTR3-reprogrammed monocytes” value was “increase”. Further, under setting [2], the “upregulation of Dbl in PKH67+ CD64+ cells” value is recorded as “reversed” and the “upregulation of TGF-β1 in PKH67+ CD64+ cells” value is listed as “reversed”.
